According to patent publication US11299472B2, “Fumarate salt of (R)-3-(1-(2,3-dichloro-4-(pyrazin-2-yl)phenyl)-2,2,2- trifluoroethyl)-1-methyl-1-(1-methylpiperidin-4-yl) urea, methods of preparation, and uses thereof” (Helsinn Healthcare SA, priority 2017, dated 2022):

Experiments:
[1] = system: Snord116+/− (Het) mice and wild-type (WT) littermates; assay: Food intake after acute administration in Prader-Willi mouse model; type: in vivo; conditions: for cumulative food intake: fasted 16 hours
Text: The effect of HM04 fumarate salt on food intake behavior and glucose tolerance was investigated in the Snord116+/−(Het) mouse genetic model of Prader-Willi syndrome (Het mouse) compared to wild-type (WT) littermates. Since D2R agonists suppress food intake, the FDA approved D2R agonist cabergoline was used as an experimental control. Phenotypic characteristics of this PWS mouse model include hyperphagia, postnatal growth retardation, high ghrelin, and low growth hormone. Ding F., et al. SnoRNA Snord116 (Pwcr1/MBII-85) deletion causes growth deficiency and hyperphagia in mice. PloS one. 2008; 3(3):e1709. These PWS mice eat more frequently than WT littermates, particularly during the light cycle and are more motivated to work for food (more level presses) (data not shown).
Acute administration: Mice (3-, 7-, and 12-month-old) were fasted for 16 hours and then administered a single intraperitoneal injection of vehicle or vehicle containing HM04, cabergoline, or HM04 and cabergoline according to Table 8, below.
HM04 was dissolved in water for injection and cabergoline was dissolved in DMSO to provide a 5% DMSO/water solution for injection. Mice were then given free access to food, and cumulative food intake was measured at 1, 2, 4, 8, 12, and 24 hours post-dosing. […] Data was analyzed for significance using 2-way ANOVA, Bonferroni post hoc test (Graphpad Prism, Prism 5.0, San Diego, Calif.).

[2] = Rat pharmacokinetic study, single oral HM04 fumarate salt 3, 10, 30 mg/kg (Example 10); type: in vivo, male Sprague Dawley rats
Description: (§1) The pharmacokinetics of HM04 in plasma after single oral administration of HM04 fumarate salt to 6-week old male Sprague Dawley rats and male Beagle dogs (1-5 years of age) was investigated. Test formulations of 0.6 mg/mL, 2 mg/mL, and 6 mg/mL HM04 fumarate salt (based on weight of the free base) were prepared in 5% glucose solution. Doses of 3, 10, and 30 mg/kg HM04 fumarate salt (based on weight of the free base) were administered by gastric gavage as a 5 mL/kg dose volume of each of the three test formulations. Four animals were in each dose group. The formulation was administered to the dogs in fasting conditions with food provided three hours post-dosing.
A comparison of the plasma concentration of HM04 (ng/mL) in rats over time is provided in FIG. 19 and a summary of the pharmacokinetic analysis is provided in Table 5, below. […] The standard deviation associated with the mean oral bioavailability was calculated according to the formula: SDq=[^2√{square root over ((my^2·SDx^2+mx^2−SDy^2))}]/my^2 where q=mean bioavailability; mx=oral dose-normalized mean AUC, and my=IV dose-normalized mean AUC.
(§2) Plasma HM04 concentrations were measured by LC-MS/MS following protein precipitation in the 96-well plate format. At the time of analysis samples were thawed out at ambient temperature. Aliquots of 25 μL of rat or dog K3EDTA plasma were spiked with 300 μL of internal standard (25 ng/mL of HM04-d8 in acetonitrile). After gentle vortex mixing for 5 minutes and centrifugation at 2010 g for 15 minutes at 4° C., an aliquot of 100 μL of the organic phase was transferred into a fresh 96-well polypropylene plate, using a P3-Evolution robotic system (Perkin Elmer). Following dilution with 100 μL of […] ammonium formate pH 3.5, an aliquot of 10 μL was injected into the LC-MS/MS system.

[3] = Dog pharmacokinetic study, single oral HM04 fumarate salt 3, 10, 30 mg/kg (Example 10); type: in vivo, male Beagle dogs
Description: as §1
Oral absolute bioavailability at 3 mg/kg was calculated from the ratio of individual oral AUC∞ to the individual AUC∞ values determined following intravenous administration of 3 mg/kg HM04 fumarate salt (based on weight of the free base) to the same four male Beagle dogs.
Oral absolute bioavailability at 10 mg/kg was calculated from the ratio of individual oral AUC∞ to the individual AUC∞ values determined following intravenous administration of 10 mg/kg HM04 fumarate salt (based on weight of the free base) to the same four male Beagle dogs.
as §2

CN1CCC(N(C)C(=O)N[C@H](c2ccc(-c3cnccn3)c(Cl)c2Cl)C(F)(F)F)CC1 [HM04, (R)-3-(1-(2,3-dichloro-4-(pyrazin-2-yl)phenyl)-2,2,2-trifluoroethyl)-1-methyl-1-(1-methylpiperidin-4-yl)urea]
cumulative food intake ([1]; 3-month-old Het mice, HM04 10 mg/kg single i.p.): significantly suppressed food intake at 12 and 24 hours post-dosing
cumulative food intake ([1]; 3-month-old WT mice, HM04 10 mg/kg single i.p.): failed to inhibit food intake
cumulative food intake ([1]; 7-month-old Het mice, HM04 10 mg/kg single i.p.): did not inhibit food intake
food intake ([1]; 7-month-old Het mice, HM04 30 mg/kg single i.p.): inhibited food intake for up to 8 hours
cumulative food intake ([1]; 7-month-old WT mice, HM04 10 mg/kg single i.p.): did not inhibit food intake
food intake ([1]; 7-month-old WT mice, HM04 30 mg/kg single i.p.): no apparent effect on food intake
food intake ([1]; 12-month-old Het mice, HM04 10 mg/kg single i.p., 1 hour after dosing): suppressed food intake
food intake ([1]; 12-month-old Het mice, HM04 10 mg/kg single i.p., after 1 hour (up to 24 hours)): that level of inhibition was not maintained
food intake ([1]; 12-month-old WT mice, HM04 10 mg/kg i.p.): did not reduce food intake
bioavailability ([2]; male, Sprague Dawley, plasma, oral doses of 3 and 10 mg/kg): 40 to 50%
exposure to HM04 versus dose ([2]; oral 3, 10, 30 mg/kg): more than a proportional increase at 30 mg/kg
detectable pre-dose concentrations of HM04 ([3]; 3 mg/kg oral, three of the four dogs, range): 5.15 to 8.31 ng/mL
detectable pre-dose concentration ([3]; oral 10 mg/kg, Dog 2): 8.60 ng/mL
